In test [1] the target is Peroxisome proliferator-activated receptor gamma/Nuclear receptor coactivator 3 (Homo sapiens, UniProt P37231). Description: TR-FRET dose response biochemical High Throughput Screening assay for agonists of the steroid receptor coactivator 3 (SRC-3) recruitment by the peroxisome proliferator-activated receptor gamma (PPAR gamma): non-selective agonists. [Related pubchem assays: 1301 (Confirmation screen.), 1048 (Primary screen.)]. It counts as functional.

In test [2] the target is Peroxisome proliferator-activated receptor gamma/Nuclear receptor coactivator 2 (Homo sapiens, UniProt P37231). Nature of the test: TR-FRET dose response biochemical High Throughput Screening assay for agonists of the steroid receptor coactivator 2 (SRC-2) recruitment by the peroxisome proliferator-activated receptor gamma (PPAR gamma): non-selective agonists. [Related pubchem assays: 1297, 1032 ]. It counts as functional. A general note: In TR-FRET formats the signal depends on donor and acceptor labels being close together.

For test [3], the target named is Peroxisome proliferator-activated receptor gamma/Nuclear receptor coactivator 1 (Homo sapiens, UniProt P37231). Nature of the test: TR-FRET dose response biochemical High Throughput Screening assay for agonists of the steroid receptor coactivator 1 (SRC-1) recruitment by the peroxisome proliferator-activated receptor gamma (PPAR gamma): non-selective agonists. [Related pubchem assays (depositor defined):AID1300, AID1808, AID504735, AID631]. Format: protein assay.

Another test concerns the target Exodeoxyribonuclease V (Escherichia coli (strain K12), UniProt P04993+P07648+P08394). Description: RecBCD inhibition via phage-restricted bacterial growth – absorbance, V66 E. coli, mutant T4 phage, counter-screen for AddAB inhibitor project, dose response (AID 492957). It counts as functional, cell-based, Escherichia coli str. K-12 substr. MG1655.
Test [4] can be described thus: Counterscreen for AddAB inhibitors: absorbance-based bacterial cell-based high throughput dose response assay for inhibitors of bacterial viability. [Related pubchem assays (depositor defined):AID435030, AID449728, AID449731, AID488942, AID488955, AID488956]. It counts as functional.
The target in a further test is CAAX prenyl protease 1 (Saccharomyces cerevisiae S288c, UniProt P47154). Description: yeast CAAX protease Ste24 inhibition – biochemical, S. cerevisiae, plate reader, cherry-pick, dose response (AID 488815).
The target of test [5] is T1, CAAX prenyl protease 2 (Saccharomyces cerevisiae S288c, UniProt Q03530).
T1 sequence (Q03530 whole entry): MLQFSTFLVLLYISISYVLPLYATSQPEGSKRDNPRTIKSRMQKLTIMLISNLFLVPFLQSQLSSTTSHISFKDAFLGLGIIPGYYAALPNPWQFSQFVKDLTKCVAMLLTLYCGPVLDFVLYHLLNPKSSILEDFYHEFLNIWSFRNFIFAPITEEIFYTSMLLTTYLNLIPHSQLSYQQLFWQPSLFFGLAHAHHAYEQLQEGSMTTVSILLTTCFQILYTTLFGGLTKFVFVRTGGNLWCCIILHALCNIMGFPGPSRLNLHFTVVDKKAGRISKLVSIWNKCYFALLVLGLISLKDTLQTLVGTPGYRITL
Format: biochemical.

Test [6] deals with T2, CAAX prenyl protease 2 (Homo sapiens, UniProt Q9Y256).
T2 sequence (Q9Y256 whole entry): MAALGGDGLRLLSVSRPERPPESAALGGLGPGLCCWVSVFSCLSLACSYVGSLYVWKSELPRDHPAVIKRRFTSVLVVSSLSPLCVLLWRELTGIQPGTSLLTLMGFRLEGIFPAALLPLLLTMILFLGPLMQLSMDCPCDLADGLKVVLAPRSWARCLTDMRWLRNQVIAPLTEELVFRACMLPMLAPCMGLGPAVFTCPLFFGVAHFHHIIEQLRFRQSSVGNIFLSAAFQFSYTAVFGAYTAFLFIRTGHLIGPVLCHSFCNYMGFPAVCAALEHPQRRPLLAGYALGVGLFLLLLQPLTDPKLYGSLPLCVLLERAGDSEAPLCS
Nature of the test: inhibition of Ras-converting CAAX protease Rce1 – biochemical, yeast membranes, quenched-peptide fluorescence, cherry-pick, dose response (AID 588849).

The target of a further test is Trypsin (Sus scrofa, UniProt P00761). Description: trypsin protease activity blockade – biochemical, quenched peptide fluorescence, cherry-pick, selectivity assay for Rce1 protease inhibitor project, dose response (AID 488789).
The next test has as its system Jurkat. Nature of the test: blockers of NF-kB activation in T cells – Jurkat, luciferase reporter, luminescence, B- and T-cell, dose response (AID 489004).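 Also: NF-kB luciferase reporter Jurkat cells stimulated with PMA plus ionomycin.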 The conditions noted are these: Homo sapiens. It counts as functional, cell-based.
A short description of test [7]: Trypanosoma cruzi growth suppression in host cells – NIH3T3 host cells, beta-gal luminescence, confirmation (AID 2044).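 Also: intracellular parasites grown in NIH/3T3 mouse fibroblasts as host cells; luminescent beta-galactosidase reporter signal from transgenic T. cruzi replicating inside host cells; inhibitors lower the luminescence signal.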 It counts as functional, cell-based.
The nature of test [8]: NIH3T3 cell viability loss – ATP luminescence, mouse fibroblasts, counter-screen, dose response (AID 2010).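 Also: cells exposed to compound for about 90 hours before reading.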 Format: functional, cell-based. (In general: Counterscreens check selectivity or assay interference.)
Test [9] can be described thus: HEK-293T viability loss, compound-treated – cell-based, uHTS hits, cytotoxicity control for B/T-cell NF-kB inhibitor project, dose response (AID 489019).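 Also: IC50 reflects cytotoxicity as loss of cell viability.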 Format: functional.
A further test relates to INS1. Description: INS-1E survival protection against cytokine death – cell-based, luminescence, retest, dose response (AID 449756).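 Also: cell death triggered by IL-1 beta plus TNF-alpha plus IFN-gamma mixture; protective hits raise ATP signal compared with cytokine alone wells.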 The following applies: Rattus norvegicus. Format: functional.
For test [10], the target named is T3, Short transient receptor potential channel 4 (Mus musculus, UniProt Q9QUQ5).
T3 sequence (Q9QUQ5 whole entry): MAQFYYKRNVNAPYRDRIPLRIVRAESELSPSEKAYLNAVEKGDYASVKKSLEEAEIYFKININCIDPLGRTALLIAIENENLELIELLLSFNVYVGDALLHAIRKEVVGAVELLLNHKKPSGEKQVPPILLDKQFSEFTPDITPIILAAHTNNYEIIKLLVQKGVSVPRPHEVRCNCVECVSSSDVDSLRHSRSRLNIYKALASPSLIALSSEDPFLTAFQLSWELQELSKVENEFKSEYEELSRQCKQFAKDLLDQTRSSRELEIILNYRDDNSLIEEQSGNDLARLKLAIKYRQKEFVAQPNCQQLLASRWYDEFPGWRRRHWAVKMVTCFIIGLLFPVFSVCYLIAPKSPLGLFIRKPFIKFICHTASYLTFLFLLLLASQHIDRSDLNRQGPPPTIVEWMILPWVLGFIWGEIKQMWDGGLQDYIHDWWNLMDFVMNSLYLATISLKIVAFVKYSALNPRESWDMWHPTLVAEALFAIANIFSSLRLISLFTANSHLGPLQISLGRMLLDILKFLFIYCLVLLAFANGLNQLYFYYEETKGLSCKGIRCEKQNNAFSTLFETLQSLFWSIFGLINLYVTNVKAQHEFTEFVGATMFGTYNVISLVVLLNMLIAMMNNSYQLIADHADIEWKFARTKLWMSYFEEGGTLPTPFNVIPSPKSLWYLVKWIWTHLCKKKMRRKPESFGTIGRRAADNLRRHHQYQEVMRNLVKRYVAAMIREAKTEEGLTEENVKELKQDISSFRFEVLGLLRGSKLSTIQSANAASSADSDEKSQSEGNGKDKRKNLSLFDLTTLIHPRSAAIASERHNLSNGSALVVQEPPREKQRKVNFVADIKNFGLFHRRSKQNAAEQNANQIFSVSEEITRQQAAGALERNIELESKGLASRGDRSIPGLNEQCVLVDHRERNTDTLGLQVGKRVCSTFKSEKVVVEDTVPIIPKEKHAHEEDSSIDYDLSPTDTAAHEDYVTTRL
Nature of the test: block of DAMGO-driven TRPC4 calcium entry – cell-based, HEK293 TRPC4/mu-opioid, Fluo-4 calcium, dose response (AID 434942).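 Also: potency of inhibitors blocking the TRPC4 calcium response.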 Format: functional.

Test [11] can be described thus: reduction of Shn3 3'UTR-driven luciferase in osteoblasts – cell-based, Clone20 osteoblasts, firefly luciferase, cherry-picked, dose response (AID 624132).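 Also: firefly luciferase luminescence from reporter carrying the Shn3 3'UTR in osteoblasts.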 It counts as functional.
Test [12] can be described thus: blockade of melanocortin 4 receptor signaling – cell-based, plate reader, cherry pick, counter-screen for LGR2 antagonist project, dose response (AID 743444).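 Also: transfected HEK 293 cells stimulated with alpha-MSH peptide; potency of inhibitors of the alpha-MSH evoked signal.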 Format: functional.
Test [13] can be described thus: toxicity toward HepG2 liver cells – cell-based, plate reader, cherry-pick, antagonist series, cytotoxicity control, dose response (AID 743416). It counts as functional.
For test [14], the target named is Luciferin 4-monooxygenase (Photinus pyralis, UniProt P08659). Nature of the test: inhibition of purified Photinus pyralis luciferase – biochemical, luminescence, dose response (AID 1891).
A short description of test [15]: viability loss in HEK293 cells – cell-based, plate reader, cherry-picked samples, cytotoxicity control, dose response (AID 743446). Format: functional.
Test [16] in a line: A549 cell cytotoxicity, dose response, cytotoxicity control, plate reader, cherry-pick, antagonist series (AID 743412). Format: functional, cell-based.
Test [17] is described as follows: loss of viability in HepG2 cells – cell-based, CellTiter-Glo, cherry-picked, cytotoxicity control for Shn3 inhibitor project, dose response (AID 624134). Format: functional. (In ATP-based viability assays light output follows the ATP content of the culture.)
Test [18] in a line: Luminescence Cell-Based Dose Confirmation HTS to Identify Inhibitors of Platelet Dense Granule Release. [Related pubchem assays: 1663 (Primary HTS), 1678 (Summary of Project)]. It counts as functional.
Test [19] in a line: blockers of bursicon-stimulated LGR2 cAMP reporter – cell-based, HEK293, CRE-luciferase reporter, cherry pick, set 2, dose response (AID 743343).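 Also: transfected cells were stimulated with diluted bursicon conditioned medium after compound addition.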 It counts as functional.
Test [20] deals with Heat shock protein HSP 90-alpha (Homo sapiens, UniProt P07900). It counts as functional, organism-based.
Test [21] can be described thus: non-specific 3'UTR reporter inhibition in Clone20-Shn3RL – cell-based, Renilla luciferase, cherry-picked, counter-screen for Shn3 inhibitor project, dose response (AID 624133). Format: functional.
A further test deals with Phosphomannomutase 2 (Homo sapiens, UniProt O15305). Nature of the test: Counter screen SAR assay for PMM2 inhibitors via a fluorescence intensity assay. [Related pubchem assays (depositor defined):AID1545, AID1574].
Test [22] addresses T4, Mannose-6-phosphate isomerase (Homo sapiens, UniProt P34949).
T4 sequence (P34949 whole entry): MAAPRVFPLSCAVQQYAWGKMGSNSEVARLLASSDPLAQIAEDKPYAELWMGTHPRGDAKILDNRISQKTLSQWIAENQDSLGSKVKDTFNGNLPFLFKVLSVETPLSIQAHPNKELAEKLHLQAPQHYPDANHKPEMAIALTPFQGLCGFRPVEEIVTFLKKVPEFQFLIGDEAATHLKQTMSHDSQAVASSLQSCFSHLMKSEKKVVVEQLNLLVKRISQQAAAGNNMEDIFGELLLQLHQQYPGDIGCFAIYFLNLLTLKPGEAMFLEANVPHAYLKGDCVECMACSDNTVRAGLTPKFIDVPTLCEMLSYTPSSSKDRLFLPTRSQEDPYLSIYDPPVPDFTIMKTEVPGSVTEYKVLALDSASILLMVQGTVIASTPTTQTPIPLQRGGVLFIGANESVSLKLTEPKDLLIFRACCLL
Nature of the test: phosphomannose isomerase inhibition – biochemical, fluorescence intensity, confirmation (AID 1535).

Each structure is given as a SMILES string. The source made the active and inactive calls. Some results are limits rather than exact numbers.

Sequence of CAAX prenyl protease 1 (P47154 whole entry): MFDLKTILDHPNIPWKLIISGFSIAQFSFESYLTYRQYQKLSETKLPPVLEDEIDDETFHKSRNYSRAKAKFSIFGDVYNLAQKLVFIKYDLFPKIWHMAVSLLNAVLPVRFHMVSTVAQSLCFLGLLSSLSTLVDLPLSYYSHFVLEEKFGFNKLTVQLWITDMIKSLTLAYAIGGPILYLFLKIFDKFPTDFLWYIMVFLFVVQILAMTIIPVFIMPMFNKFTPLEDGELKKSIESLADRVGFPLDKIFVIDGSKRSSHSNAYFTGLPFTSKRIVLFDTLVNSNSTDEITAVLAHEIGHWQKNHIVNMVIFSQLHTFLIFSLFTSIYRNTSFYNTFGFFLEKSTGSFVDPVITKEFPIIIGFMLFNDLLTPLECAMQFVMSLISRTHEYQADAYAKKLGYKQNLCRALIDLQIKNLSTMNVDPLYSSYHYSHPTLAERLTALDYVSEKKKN
Sequence of Trypsin (P00761 whole entry): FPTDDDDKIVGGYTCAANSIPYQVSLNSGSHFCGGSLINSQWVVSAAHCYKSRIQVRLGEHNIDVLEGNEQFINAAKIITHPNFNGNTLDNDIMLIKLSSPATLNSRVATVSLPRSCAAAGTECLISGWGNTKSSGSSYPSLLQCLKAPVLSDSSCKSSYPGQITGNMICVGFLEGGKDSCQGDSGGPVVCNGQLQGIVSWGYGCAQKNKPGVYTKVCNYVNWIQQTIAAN
Sequence of Exodeoxyribonuclease V (P04993 whole entry): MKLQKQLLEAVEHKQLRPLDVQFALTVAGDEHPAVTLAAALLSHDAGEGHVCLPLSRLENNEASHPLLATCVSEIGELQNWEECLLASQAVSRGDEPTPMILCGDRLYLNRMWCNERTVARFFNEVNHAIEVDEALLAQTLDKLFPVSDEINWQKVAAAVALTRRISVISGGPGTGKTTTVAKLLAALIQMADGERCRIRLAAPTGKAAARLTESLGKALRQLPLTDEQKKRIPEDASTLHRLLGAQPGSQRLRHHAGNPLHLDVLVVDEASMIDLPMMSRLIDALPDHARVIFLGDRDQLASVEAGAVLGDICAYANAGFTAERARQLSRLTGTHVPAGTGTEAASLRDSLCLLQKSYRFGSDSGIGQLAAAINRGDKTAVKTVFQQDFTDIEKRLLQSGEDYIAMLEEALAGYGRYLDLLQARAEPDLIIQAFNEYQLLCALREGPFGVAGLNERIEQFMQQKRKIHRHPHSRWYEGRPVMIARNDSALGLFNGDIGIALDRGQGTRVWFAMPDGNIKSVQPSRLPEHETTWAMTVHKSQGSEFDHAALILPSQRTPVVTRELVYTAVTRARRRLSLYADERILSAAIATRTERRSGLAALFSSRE
Sequence of Exodeoxyribonuclease V (P07648 whole entry): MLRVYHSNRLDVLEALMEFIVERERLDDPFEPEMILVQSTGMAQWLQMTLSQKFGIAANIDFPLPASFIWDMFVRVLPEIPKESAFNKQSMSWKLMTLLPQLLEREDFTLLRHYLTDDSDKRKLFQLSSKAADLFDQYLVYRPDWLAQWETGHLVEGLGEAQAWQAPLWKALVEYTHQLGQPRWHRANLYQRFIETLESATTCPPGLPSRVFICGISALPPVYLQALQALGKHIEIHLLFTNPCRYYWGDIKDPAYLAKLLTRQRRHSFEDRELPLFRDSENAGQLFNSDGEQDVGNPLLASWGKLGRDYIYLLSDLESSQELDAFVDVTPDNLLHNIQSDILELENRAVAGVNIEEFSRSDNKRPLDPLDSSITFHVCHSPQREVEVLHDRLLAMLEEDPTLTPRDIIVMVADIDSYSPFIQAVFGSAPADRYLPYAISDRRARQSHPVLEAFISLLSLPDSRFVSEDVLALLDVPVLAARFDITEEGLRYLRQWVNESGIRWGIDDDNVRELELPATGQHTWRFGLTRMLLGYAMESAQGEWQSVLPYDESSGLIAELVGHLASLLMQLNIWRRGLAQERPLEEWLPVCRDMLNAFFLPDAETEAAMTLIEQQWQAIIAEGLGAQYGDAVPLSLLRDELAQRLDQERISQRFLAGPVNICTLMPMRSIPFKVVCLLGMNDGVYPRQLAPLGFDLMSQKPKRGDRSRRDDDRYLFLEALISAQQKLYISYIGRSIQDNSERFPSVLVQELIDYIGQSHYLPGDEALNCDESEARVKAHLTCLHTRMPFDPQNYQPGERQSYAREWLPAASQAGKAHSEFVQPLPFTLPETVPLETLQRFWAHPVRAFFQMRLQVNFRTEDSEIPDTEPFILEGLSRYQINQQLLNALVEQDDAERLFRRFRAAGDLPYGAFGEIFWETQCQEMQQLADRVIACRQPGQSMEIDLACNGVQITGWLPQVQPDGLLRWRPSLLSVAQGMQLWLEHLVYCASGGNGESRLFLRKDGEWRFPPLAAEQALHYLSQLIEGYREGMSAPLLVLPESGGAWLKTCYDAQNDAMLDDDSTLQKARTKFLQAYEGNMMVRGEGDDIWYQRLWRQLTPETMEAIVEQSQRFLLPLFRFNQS
Sequence of Exodeoxyribonuclease V (P08394 whole entry): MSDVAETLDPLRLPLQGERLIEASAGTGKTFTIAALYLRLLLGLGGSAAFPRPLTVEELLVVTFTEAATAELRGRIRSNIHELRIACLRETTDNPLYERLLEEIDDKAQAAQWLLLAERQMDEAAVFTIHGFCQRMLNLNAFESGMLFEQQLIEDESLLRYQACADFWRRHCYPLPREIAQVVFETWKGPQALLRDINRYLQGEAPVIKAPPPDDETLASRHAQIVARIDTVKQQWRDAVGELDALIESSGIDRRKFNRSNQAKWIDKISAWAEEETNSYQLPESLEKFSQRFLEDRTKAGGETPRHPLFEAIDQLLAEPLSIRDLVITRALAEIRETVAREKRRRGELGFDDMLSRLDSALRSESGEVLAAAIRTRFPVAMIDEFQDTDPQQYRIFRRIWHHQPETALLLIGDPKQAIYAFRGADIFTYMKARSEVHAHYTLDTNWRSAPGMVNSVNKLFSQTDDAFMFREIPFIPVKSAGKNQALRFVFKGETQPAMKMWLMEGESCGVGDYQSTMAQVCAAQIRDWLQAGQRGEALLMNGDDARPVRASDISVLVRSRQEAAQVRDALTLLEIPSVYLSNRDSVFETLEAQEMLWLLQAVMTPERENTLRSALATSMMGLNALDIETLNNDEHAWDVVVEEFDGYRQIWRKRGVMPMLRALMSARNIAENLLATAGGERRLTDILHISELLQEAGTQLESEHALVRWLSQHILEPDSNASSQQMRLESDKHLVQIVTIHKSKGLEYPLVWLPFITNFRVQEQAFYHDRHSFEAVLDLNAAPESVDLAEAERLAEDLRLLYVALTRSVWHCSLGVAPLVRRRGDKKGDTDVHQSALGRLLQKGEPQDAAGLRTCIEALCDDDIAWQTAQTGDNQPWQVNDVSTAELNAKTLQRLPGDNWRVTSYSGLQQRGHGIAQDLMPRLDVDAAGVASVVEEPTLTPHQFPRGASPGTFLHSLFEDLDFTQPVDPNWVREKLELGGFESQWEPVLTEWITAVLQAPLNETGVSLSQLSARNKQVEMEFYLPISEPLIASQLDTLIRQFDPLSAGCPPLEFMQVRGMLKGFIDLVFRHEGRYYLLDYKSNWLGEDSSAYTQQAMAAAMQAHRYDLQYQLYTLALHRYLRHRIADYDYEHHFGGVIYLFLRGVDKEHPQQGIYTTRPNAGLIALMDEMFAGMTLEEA
Sequence of Luciferin 4-monooxygenase (P08659 whole entry): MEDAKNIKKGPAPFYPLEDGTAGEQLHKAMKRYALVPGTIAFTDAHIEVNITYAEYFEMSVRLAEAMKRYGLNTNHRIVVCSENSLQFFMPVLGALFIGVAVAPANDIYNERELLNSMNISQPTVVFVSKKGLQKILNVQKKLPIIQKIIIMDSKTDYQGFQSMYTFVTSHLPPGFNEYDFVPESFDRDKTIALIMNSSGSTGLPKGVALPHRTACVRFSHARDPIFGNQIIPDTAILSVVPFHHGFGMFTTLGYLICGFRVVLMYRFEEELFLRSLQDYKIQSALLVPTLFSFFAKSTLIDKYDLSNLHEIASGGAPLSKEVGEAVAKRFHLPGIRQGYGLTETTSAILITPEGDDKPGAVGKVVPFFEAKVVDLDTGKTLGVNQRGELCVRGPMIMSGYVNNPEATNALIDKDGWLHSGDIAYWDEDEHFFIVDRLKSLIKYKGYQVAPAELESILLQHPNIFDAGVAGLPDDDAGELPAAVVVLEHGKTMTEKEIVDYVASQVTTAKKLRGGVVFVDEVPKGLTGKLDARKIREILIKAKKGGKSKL
Sequence of Phosphomannomutase 2 (O15305 whole entry): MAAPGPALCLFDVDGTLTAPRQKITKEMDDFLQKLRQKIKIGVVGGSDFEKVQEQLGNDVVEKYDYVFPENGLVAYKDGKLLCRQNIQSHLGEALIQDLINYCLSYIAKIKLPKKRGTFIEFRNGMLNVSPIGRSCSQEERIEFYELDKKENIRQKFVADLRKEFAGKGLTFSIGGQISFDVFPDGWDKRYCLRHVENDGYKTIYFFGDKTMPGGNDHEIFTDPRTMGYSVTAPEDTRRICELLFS

As a reminder, the EC50 is the midpoint of the concentration-response curve. `Cn1c(=O)cc(SCC(=O)NCc2ccc(F)cc2)c2ccccc21`: the EC50 in test [1] is > 79.4 µM (not active); in [2], > 79.4 µM (not active); in [3] it was > 79.4 µM (inactive).

For orientation: IC50 means the concentration that gives 50% inhibition. For the compound `O=C(CSc1nc2ccccc2s1)Nc1ccc(N2CCOCC2)c(Cl)c1`, the IC50 (on Exodeoxyribonuclease V; in test [4]) was > 119 µM (inactive) throughout.

What is called AC50 is the midpoint of the concentration-response curve, whichever way the signal moves. For the compound `C[n+]1ccc(-c2ccccc2)c2ccccc21`, the AC50 was 2.18 µM (active) on CAAX prenyl protease 1, 54.7 µM (active) at CAAX prenyl protease 2 [5], 5.8 µM (active) at CAAX prenyl protease 2 [6] and 23.1 µM (active) at Trypsin.

As to `CCCCC[n+]1cccc2c3ccccc3ccc21`, the IC50 (with Jurkat; in [9]) was > 80 µM (inactive) each time. The AC50 on CAAX prenyl protease 1 was 4.72 µM (active); at CAAX prenyl protease 2 [5] it was > 100 µM (inactive); on CAAX prenyl protease 2 [6] it was 7.74 µM (active); at Trypsin it was 8.59 µM (active); in the test on INS1, 4.56 µM (active). Further, the EC50 in test [7] is 0.466 µM (active); in [8], > 30 µM (not active); in test [10], 3.35 µM (active).

`COc1ccc(-c2nc(-c3ccccn3)no2)cc1`: the AC50 is 1.92 µM (active) in test [11]; 0.504 µM (active) in test [12]; 3.7 µM (active) in test [13]; 3.26 µM (active) in test [15]; 3.8 µM (active) in [16]; 7.01 µM (active) in test [17]. Besides, the AC50 was 0.415 µM (active) in test [19], 3.81 µM (active) in the test on INS1, 20.4 µM (active) in test [20] and 26.9 µM (active) in test [21]. Also, the values for the IC50 (in the test on Jurkat; in test [9]) were 0.88 µM (active) and > 80 µM (inactive), respectively. In addition, the EC50 in test [14] is 0.548 µM (active); in test [18], 2.15 µM (active).

In the case of `O=C(CCC1CCCC1)NNC(=O)c1cc2ccccc2cc1O`, the IC50 (at Exodeoxyribonuclease V; in test [4]) was > 119 µM (inactive) in each case.

`Oc1ccc(/N=c2\ssnc2Cl)cc1`: the IC50 (on Phosphomannomutase 2; in [22]) was > 100 µM (inactive) in each case.

Values taken from ChEMBL document CHEMBL1201862, “PubChem BioAssay data set” (2004).
